Test results as given in patent publication US20260137701A1, “CHOLESTENOIC ACID (CA) AND A SULFATED DERIVATIVE THEREOF, 3[BETA]-SULFATE-5-CHOLESTENOIC ACID (CA3S), AS ENDOGENOUS EPIGENETIC REGULATORS” (priority 2022, published 2026).

Experiments:
recombinant DNMT1 = recombinant DNMT1 (Homo sapiens, UniProt P26358); experiment: DNMT1 enzyme kinetic (activity) assay, 3H-SAM filter; assay type: biochemical
Procedure: (§1) The enzyme kinetic studies were carried out by Reaction Biology Company. For the DNMT1 activity assay, the substrate solution, 0.001 mg/ml Poly(dI-dC): Poly(dI-dC) in 50 mM Tris-HCl, pH 7.5, 50 mM NaCl, 5 mM EDTA, 5 mM DTT, 1 mM PMSF, 5% glycerol, 0.01% Brij™35, 1% DMSO was used. For the DNMT3a/3b activity assay, 0.0075 mg/ml Lambda DNA in 50 mM Tris-HCl, pH 7.5, 50 mM NaCl, 5 mM EDTA, 5 mM DTT, 1 mM PMSF, 5% glycerol, 1% DMSO, was used. The indicated DNMT1, DNMT3a and DNMT3b were added to the appropriate substrate solution and gently mixed. Amounts of CA ranging from 5.08E-09 to 0.0001 M in DMSO were added to the reaction mixture by using Acoustic Technology (Echo® 550, LabCyte Inc. Sunnyvale, CA). The mixtures were first incubated for 15 min, then ^3H-SAM was added to the reaction mixture to initiate the reaction, and the mixture was incubated for 60 min at 30° C. Following incubation, the reaction mixture was finally transferred to filter-paper for detection of radioactivity counts.

recombinant DNMT3a = recombinant DNMT3a (Homo sapiens, UniProt Q9Y6K1); experiment: DNMT3a enzyme kinetic (activity) assay, 3H-SAM filter; assay type: biochemical; conditions: read-out: IC50, inhibits DNMT3a activity
Sequence of recombinant DNMT3a (Q9Y6K1 whole entry, looked up): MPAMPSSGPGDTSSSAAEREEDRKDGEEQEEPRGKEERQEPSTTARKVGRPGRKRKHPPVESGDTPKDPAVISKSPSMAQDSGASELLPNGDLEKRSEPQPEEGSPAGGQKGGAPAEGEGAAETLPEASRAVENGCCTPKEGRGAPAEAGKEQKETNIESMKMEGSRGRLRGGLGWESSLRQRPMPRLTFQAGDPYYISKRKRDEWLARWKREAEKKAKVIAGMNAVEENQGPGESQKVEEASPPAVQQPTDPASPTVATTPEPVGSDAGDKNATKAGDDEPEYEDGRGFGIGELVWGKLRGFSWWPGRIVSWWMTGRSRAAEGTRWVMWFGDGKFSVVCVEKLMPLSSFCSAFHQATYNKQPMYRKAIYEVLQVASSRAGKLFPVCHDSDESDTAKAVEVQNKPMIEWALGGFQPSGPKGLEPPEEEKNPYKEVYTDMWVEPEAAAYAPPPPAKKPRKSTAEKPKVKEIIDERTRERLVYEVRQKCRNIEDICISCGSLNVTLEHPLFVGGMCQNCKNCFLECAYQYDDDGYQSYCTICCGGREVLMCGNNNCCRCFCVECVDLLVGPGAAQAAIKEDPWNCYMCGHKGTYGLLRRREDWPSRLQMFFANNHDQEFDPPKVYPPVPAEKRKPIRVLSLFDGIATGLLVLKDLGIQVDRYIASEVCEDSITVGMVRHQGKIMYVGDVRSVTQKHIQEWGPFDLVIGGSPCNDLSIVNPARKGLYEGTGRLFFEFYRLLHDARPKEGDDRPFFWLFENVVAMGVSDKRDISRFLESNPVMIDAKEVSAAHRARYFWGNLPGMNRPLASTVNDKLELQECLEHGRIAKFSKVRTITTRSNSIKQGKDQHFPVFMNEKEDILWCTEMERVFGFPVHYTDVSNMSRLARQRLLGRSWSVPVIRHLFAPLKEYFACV
Procedure: as §1

recombinant DNMT3b = recombinant DNMT3b (Homo sapiens, UniProt Q9UBC3); experiment: DNMT3b enzyme kinetic (activity) assay, 3H-SAM filter; assay type: biochemical; conditions: read-out: IC50, inhibits DNMT3b activity
Procedure: as §1

HepG-2 cells [1] = experiment: LC-MS/MS determination of CA levels in total cellular and nuclear extracts; assay type: in vitro ADME, human; conditions: addition of 20 μM CA
Procedure: HepG-2 cells, 5,000 cells/cm^2, were cultured in DMEM (HG, 10% FBS) medium for 3 days, and then treated with 20 μM of CA for 0, 3, 6, 12, and 24 hours. After treatment, the cells were washed twice with cold PBS then harvested with 1 ml PBS. For total cell extraction, the cells were collected by centrifuge at 1,000 rpm for 5 min. For nuclei extraction, the nuclear fractions were extracted according to the manufacture's instructions for NE-PER™ Nuclear and Cytoplasmic Extraction Reagents (Thermo Scientific, Rockford, IL). Total proteins in the cell and nuclear fractions were digested with proteinase K (2 mg/ml), incubated at 50° C. with shaking for 3 hours. The total lipids in the total cell and nuclear fractions were extracted with 10 volumes of chloroform:methanol 1:1, vortexed, and sonicated for 30 mins. The extracts were centrifuged at 1,000 rpm for 5 min, the supernatants were dried up by stream nitrogen, then dissolved with 200 μl of methanol, 2 μl of the extracts were used for the CA analysis by LC-MS/MS system as below.
Shimadzu LCMS-8600 CL LC-MS system equipped with electrospray ionization (ESI) were used to determine the CA levels. Data were collected and processed using Shimadzu Lab solutions software. Hypersil Gold™ C18 (50 mm×2.1 mm inner diameter, particle size 2.6 μm, Thermo Scientific) was maintained at 40° C. during the analysis. […]

NAFLD mouse model = experiment: western diet-induced NAFLD mice model, health and serum enzymes; assay type: in vivo; conditions: 10 mg/kg CA injection, two weeks
Text: The animal studies were approved by the Institutional Animal Care and Use Committee of McGuire Veterans Affairs Medical Center and conducted in accordance with the Declaration of Helsinki, the Guide for the Care and Use of Laboratory Animals, and all applicable regulations. In this study, a western diet-induced nonalcoholic fatty liver disease (NAFLD) mice model was used. To create the model, eight-week-old C57BL/6J female mice were purchased from the Jackson Laboratory and fed a western diet (TD.88137, Envigo) along with high glucose/fructose water (WDSW) containing 23.1 g/L fructose and 18.9 g/L glucose for 12 weeks. After establishing the model, the mice were separated into three groups based on their weight. For the control mice in each group, they received intravenous injection (IV) with vehicle (DMSO). In contrast, the treatment group mice were intravenously injected with 10 mg/kg of CA (dissolved in DMSO) with a total volume of less than 100 μl. During the treatment period, injections were administered every two days. All mice were housed under identical conditions in an aseptic facility with a 12-hour light/12-hour dark cycle and provided with free access to water and food (WDSW). Before scarification, the mice fasted overnight. Blood samples were collected, and the serum enzymatic activities of alkaline phosphatase (ALK), alanine aminotransferase (ALT), and aspartate aminotransferase (AST) were measured in the clinical laboratory at McGuire Veterans Affairs Medical Center.

HepG-2 cells [2] = experiment: RT-qPCR of genes of lipid metabolism and calcium signaling; assay type: cell-based, human; conditions: concentration and time dependent
Procedure: After culturing HepG-2 cells in DMEM medium with HG for 72 hours followed by treating with 20 μM CA for 0, 3, 6, 12, and 24 hours, genomic DNA from 5×10^7 cells were extracted using QIAamp® DNA Mini Kit (QIAGEN, Hilden, Germany). Each sample, 6 μg, was sent to CD Genomics Co., Ltd (New York, USA) for analysis of WGBS. Total RNA was isolated using the Promega SV total RNA isolation system (Madison, WI, USA) with DNase treatment. Each sample, 2 μg, were sent to CD Genomics Co., Ltd (New York, USA) for analysis of RNA sequencing. The same samples, 2 μg, was used for the first-strand cDNA synthesis as recommended by the manufacturer (Invitrogen, Carlsbad, CA). RT-qPCR was performed using SYBR Green as the indicator on ABI 7500 Fast Real-Time PCR System (Applied Biosystems, Foster City, CA). Amplifications of j-actin or GAPDH were used as internal controls. Relative messenger RNA (mRNA) expression was quantified with the comparative cycle threshold (Ct) method using a sutiable primer set and was expressed as 2-ΔΔCt as described previously.

HepG-2 cells [3] = experiment: HepG-2 cell death; assay type: cell-based, human
Hep G2 cells = assay type: in vitro ADME, human; conditions: human, 24 h
Text: Mitochondrial oxysterols, including cholestenoic acid (CA), 25-hydroxycholesterol (25HC), and 27-hydroxycholesterol (27HC), are potent regulators involved in important biological events such as lipid metabolism and inflammatory responses. However, their intracellular catabolic pathways have not been fully explored. In this study, we investigated the metabolic pathways of these oxysterols and their roles in the communication between hepatocytes and macrophages.

Sequence of recombinant DNMT1 (P26358 whole entry): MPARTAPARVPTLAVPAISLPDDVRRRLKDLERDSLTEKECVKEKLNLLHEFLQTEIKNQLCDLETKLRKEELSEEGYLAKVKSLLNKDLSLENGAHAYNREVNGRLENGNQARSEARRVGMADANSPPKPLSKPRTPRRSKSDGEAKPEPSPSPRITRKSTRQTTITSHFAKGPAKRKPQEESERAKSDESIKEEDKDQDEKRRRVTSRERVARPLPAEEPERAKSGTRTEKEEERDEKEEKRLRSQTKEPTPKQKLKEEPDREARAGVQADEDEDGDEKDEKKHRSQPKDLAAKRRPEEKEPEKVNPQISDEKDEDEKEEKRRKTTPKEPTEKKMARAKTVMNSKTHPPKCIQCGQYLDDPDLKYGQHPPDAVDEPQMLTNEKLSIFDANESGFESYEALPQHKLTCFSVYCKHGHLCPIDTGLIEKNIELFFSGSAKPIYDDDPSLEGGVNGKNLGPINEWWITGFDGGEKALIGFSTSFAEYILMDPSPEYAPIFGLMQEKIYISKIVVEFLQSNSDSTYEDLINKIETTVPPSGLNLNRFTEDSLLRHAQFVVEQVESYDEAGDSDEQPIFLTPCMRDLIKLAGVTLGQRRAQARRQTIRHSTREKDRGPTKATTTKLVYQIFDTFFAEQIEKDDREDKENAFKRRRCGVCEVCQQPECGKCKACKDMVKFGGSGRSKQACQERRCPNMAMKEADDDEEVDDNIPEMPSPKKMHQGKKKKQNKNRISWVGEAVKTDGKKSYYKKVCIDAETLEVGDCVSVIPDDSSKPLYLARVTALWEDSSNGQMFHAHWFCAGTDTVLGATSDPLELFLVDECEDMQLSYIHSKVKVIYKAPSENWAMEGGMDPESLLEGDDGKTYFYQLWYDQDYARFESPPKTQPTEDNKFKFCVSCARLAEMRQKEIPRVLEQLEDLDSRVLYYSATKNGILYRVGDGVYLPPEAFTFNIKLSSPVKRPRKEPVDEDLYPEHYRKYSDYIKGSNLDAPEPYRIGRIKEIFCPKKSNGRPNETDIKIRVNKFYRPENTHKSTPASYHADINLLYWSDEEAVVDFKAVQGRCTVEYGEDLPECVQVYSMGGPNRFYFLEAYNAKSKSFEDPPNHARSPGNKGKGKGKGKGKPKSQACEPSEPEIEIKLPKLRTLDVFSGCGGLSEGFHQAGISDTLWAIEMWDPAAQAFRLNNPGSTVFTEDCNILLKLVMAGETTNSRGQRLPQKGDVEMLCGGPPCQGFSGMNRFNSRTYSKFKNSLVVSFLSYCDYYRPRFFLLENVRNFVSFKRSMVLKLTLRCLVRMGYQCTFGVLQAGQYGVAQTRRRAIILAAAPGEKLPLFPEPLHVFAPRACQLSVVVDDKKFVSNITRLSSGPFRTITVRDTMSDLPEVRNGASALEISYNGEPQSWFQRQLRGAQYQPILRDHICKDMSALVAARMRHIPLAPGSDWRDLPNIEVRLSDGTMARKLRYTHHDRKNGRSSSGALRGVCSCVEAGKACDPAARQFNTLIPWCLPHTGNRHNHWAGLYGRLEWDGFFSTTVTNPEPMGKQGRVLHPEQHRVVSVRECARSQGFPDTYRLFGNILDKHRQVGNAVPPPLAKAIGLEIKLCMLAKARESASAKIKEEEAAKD

## CC(CCC[C@@H](C)[C@H]1CC[C@H]2[C@@H]3CC=C4C[C@@H](O)CC[C@]4(C)[C@H]3CC[C@]12C)C(=O)O (stereo partly drawn) [CA, 3β-hydroxy-5-cholestenoic acid]
Recombinant DNMT1; at higher concentration, read-out: IC50, inhibits DNMT1 activity
  IC50: 9.13 µM
Recombinant DNMT1; at low concentration, mean±SD, n=3, read-out: EC50, activates DNMT1
  EC50: 1.99 µM
Recombinant DNMT3a
  IC50: 8.41 µM
Recombinant DNMT3b
  IC50: 4.89 µM
HepG-2 cells [1]; 6 hours
  increase of CA in cellular nuclei: 4 fold
HepG-2 cells [1]; 12 hours
  increase of intracellular CA levels: 85 fold
NAFLD mouse model
  in vivo toxicity, health of mice: remained in good health
  serum activity of ALK: significant decrease
  serum activity of ALT: significant decrease
HepG-2 cells [2]; 0-20 μM CA 6 hours
  levels of mRNA encoding FAS: decreased
  levels of mRNA encoding HMGR: decreased
  levels of mRNA encoding PCSK9: decreased
HepG-2 cells [2]
  expression of CACNA1D: up-regulated
  expression of CACNA1H: up-regulated
  expression of CAMK2B: up-regulated
HepG-2 cells [3]
  HepG-2 cell death: induces HepG-2 cell death
Hep G2 cells
  maximum of novel molecular ion m/z 495 (CA3S) formed from CA: 90%
